According to ChEMBL document CHEMBL2086223 (Bioorg Med Chem Lett, 2012):
The source made the active and inactive calls. No cut-off for these calls is given here.

How the values were obtained:
[1] = organism: Homo sapiens; assay: Selectivity ratio of Ki for human 5HT3A receptor to Ki for human 5HT4c receptor
[2] = target: T1, 5-hydroxytryptamine receptor 4 (Homo sapiens, UniProt Q13639); assay: Agonist activity at human recombinant 5HT4c receptor expressed in HEK293 cells at 10-fold physiological level assessed as accumulation of cAMP relative to 5HT; format: functional, cell-based
T1 sequence (Q13639 whole entry): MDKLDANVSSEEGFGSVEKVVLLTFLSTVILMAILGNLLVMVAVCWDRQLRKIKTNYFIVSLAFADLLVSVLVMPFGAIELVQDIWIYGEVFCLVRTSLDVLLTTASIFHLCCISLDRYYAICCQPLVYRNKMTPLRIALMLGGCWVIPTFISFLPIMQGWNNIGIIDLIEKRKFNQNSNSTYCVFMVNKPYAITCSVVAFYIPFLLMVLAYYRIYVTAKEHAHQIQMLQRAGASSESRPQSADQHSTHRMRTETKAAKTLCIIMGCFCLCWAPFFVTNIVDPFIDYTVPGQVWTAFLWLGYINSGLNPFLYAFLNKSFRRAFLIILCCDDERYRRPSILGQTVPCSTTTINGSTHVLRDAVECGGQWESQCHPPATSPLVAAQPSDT

[3] = (§1) Half life in rat liver microsomes
[4] = target: T1, 5-hydroxytryptamine receptor 4
[5] = target: T1, 5-hydroxytryptamine receptor 4; assay: biochemical
Description: Displacement of [3H]GR113808 from human recombinant 5HT4c receptor expressed in HEK293 cells

[6] = target: T2, 5-hydroxytryptamine receptor 7 (Homo sapiens, UniProt P34969); assay: Binding affinity to 5HT7 receptor
T2 sequence (P34969 whole entry): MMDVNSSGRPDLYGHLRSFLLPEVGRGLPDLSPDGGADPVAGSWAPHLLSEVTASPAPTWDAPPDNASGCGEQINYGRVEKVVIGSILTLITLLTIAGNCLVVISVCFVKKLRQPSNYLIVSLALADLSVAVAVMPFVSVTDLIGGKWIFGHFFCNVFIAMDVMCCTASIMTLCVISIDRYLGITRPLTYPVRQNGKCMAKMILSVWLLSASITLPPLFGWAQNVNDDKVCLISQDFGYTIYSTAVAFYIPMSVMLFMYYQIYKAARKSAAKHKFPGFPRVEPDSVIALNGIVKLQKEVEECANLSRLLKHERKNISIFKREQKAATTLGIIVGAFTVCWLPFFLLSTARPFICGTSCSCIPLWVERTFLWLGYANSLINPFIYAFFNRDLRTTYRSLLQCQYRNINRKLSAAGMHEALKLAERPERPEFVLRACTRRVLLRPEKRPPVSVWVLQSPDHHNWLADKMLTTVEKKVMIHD

[7] = target: 5-hydroxytryptamine receptor 4 (Cavia porcellus, UniProt O70528); assay: Agonist activity at 5HT4 receptor in guinea pig colonic longitudinal muscle/myenteric plexus assessed as contraction
5-hydroxytryptamine receptor 4 (Cavia porcellus, UniProt O70528), sequence (O70528 whole entry): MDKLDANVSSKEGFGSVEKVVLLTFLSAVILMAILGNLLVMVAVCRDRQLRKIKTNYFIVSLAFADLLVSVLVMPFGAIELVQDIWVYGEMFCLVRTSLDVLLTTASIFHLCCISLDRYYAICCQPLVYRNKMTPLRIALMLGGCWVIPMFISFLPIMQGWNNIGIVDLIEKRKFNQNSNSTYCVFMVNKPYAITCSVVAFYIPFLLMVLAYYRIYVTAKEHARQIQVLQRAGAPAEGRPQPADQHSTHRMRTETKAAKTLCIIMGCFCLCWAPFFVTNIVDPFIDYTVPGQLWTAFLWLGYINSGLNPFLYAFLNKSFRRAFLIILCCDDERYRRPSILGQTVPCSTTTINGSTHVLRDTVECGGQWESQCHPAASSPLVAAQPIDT

[8] = tested on: Rattus norvegicus; assay: Induction of 5HT4-receptor mediated esophagal relaxation in iv dosed Sprague-Dawley rat; format: functional
[9] = tested on: Cavia porcellus; assay: Prokinetic activity in guinea pig colon assessed as decrease in carmine red dye transit time at 0.3 mg/kg, sc relative to vehicle-treated control; format: functional, organism-based; design: dose 0.3 mg/kg
[10] = tested on: Cavia porcellus; assay: Prokinetic activity in sc dosed guinea pig colon assessed as increase in distance traveled by carmine red dye after 60 mins relative to vehicle-treated control; format: functional, organism-based
[11] = Elimination half life in healthy human administered QD; format: ADME, organism-based; details: in vivo, read-out: beta t1/2 (converted)
[12] = Half life in Sprague-Dawley rat at 5 mg/kg, po; format: ADME, organism-based; design: dose 5 mg/kg, route oral; details: in vivo
[13] = target: T3, 5-hydroxytryptamine receptor 1A (Homo sapiens) (UniProt P08908); assay: Inhibition of 5HT1A receptor at 10 uM
T3 sequence (whole entry): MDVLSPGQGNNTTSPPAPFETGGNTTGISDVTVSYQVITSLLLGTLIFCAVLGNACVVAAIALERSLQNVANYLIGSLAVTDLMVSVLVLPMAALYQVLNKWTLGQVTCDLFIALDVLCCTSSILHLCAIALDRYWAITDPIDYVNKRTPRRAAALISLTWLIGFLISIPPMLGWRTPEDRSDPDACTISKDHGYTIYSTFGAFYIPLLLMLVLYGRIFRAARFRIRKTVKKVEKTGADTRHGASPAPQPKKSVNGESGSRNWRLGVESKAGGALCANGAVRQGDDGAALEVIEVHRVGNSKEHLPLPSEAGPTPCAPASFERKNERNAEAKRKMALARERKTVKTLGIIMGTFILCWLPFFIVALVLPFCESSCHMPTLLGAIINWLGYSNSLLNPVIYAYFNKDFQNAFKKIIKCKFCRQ

[14] = target: 5-hydroxytryptamine receptor 1B (Homo sapiens) (UniProt P28222); assay: Inhibition of 5HT1B receptor at 10 uM
5-hydroxytryptamine receptor 1B (Homo sapiens), sequence (P28222 whole entry): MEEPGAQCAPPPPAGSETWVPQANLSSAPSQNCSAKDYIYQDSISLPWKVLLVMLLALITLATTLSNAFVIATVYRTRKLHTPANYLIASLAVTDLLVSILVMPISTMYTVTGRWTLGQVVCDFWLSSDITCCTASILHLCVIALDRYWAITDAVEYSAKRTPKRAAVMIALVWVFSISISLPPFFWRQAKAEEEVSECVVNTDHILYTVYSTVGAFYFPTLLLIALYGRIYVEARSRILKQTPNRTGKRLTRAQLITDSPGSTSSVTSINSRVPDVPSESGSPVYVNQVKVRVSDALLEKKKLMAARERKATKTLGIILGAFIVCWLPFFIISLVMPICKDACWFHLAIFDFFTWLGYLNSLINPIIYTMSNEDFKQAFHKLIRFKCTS

[15] = target: 5-hydroxytryptamine receptor 1D (Homo sapiens) (UniProt P28221); assay: Inhibition of 5HT1D receptor at 10 uM
5-hydroxytryptamine receptor 1D (Homo sapiens), sequence (P28221 whole entry): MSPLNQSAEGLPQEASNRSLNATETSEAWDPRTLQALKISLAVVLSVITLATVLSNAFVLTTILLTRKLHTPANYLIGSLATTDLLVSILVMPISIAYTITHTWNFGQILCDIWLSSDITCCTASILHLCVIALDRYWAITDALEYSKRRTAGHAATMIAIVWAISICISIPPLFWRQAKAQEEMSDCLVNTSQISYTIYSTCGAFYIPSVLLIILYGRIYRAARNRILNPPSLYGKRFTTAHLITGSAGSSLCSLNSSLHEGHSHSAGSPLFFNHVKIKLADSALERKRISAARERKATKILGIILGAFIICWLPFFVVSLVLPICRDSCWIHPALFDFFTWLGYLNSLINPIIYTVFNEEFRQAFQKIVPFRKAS

[16] = target: 5-hydroxytryptamine receptor 2A (Homo sapiens) (UniProt P28223); assay: Inhibition of 5HT2A receptor at 10 uM
5-hydroxytryptamine receptor 2A (Homo sapiens), sequence (P28223 whole entry): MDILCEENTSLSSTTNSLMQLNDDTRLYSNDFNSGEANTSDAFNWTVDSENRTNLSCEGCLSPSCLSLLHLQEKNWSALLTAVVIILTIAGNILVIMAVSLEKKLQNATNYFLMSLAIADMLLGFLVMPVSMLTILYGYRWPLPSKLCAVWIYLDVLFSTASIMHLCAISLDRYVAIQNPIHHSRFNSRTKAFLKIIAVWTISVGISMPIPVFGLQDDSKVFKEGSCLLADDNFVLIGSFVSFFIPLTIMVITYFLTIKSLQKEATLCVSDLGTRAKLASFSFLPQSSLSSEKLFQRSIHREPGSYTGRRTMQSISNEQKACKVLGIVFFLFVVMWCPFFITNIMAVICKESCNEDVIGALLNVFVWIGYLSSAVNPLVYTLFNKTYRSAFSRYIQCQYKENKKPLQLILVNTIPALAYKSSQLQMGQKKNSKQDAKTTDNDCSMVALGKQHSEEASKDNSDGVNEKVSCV

[17] = target: 5-hydroxytryptamine receptor 2B (Homo sapiens) (UniProt P41595); assay: Inhibition of 5HT2B receptor at 10 uM
5-hydroxytryptamine receptor 2B (Homo sapiens), sequence (P41595 whole entry): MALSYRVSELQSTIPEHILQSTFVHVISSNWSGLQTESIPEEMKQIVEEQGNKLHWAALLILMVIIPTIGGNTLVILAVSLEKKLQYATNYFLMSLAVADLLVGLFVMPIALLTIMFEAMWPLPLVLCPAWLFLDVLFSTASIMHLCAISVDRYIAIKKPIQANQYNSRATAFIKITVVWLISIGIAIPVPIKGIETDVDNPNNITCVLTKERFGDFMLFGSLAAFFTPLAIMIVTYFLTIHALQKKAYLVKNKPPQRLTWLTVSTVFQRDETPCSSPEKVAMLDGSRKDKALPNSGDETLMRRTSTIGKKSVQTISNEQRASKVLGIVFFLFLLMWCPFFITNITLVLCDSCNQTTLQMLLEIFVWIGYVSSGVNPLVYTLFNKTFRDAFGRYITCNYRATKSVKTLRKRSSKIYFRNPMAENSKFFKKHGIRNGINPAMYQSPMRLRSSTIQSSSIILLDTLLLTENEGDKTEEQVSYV

[18] = target: T4, 5-hydroxytryptamine receptor 2C (Homo sapiens) (UniProt P28335); assay: Inhibition of 5HT2C receptor at 10 uM
T4 sequence (whole entry): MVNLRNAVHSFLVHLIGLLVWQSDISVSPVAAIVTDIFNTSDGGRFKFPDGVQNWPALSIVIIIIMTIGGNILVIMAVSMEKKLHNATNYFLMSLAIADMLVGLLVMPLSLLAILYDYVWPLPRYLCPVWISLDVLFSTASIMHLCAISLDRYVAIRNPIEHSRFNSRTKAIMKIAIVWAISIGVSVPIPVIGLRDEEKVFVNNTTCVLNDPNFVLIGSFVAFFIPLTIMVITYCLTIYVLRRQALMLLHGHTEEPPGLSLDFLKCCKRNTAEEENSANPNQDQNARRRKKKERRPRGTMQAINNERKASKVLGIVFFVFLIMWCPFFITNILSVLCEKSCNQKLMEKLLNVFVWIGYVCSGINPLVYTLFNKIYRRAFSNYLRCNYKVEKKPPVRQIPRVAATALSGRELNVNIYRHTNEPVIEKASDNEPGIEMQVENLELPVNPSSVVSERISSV

[19] = target: T5, 5-hydroxytryptamine receptor 3A (Homo sapiens) (UniProt P46098); assay: Inhibition of 5HT3A receptor at 10 uM
T5 sequence (whole entry): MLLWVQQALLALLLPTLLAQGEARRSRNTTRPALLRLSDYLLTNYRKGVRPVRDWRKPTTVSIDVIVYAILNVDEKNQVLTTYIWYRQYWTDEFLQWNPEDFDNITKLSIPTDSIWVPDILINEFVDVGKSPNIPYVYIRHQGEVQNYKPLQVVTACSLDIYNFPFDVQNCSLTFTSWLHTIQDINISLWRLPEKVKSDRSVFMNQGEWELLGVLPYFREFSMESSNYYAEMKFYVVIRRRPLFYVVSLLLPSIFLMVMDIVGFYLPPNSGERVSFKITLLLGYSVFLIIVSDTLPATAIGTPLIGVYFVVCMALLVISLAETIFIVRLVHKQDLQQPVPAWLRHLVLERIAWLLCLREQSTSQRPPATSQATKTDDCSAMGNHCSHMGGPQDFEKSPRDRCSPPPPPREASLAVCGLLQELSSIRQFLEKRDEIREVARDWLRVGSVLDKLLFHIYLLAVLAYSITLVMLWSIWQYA

[20] = target: 5-hydroxytryptamine receptor 5A (Homo sapiens) (UniProt P47898); assay: Inhibition of 5HT5A receptor at 10 uM
5-hydroxytryptamine receptor 5A (Homo sapiens), sequence (P47898 whole entry): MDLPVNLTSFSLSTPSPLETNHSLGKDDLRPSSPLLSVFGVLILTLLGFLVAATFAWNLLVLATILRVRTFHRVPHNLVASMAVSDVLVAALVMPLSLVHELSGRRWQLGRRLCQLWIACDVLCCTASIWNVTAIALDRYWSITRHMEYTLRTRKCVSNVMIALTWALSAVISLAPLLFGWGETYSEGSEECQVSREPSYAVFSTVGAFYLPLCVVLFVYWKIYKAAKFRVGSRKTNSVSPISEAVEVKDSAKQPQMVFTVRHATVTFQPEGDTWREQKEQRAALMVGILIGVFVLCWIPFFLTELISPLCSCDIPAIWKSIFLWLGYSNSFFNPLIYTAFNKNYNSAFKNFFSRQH

[21] = target: 5-hydroxytryptamine receptor 6 (Homo sapiens) (UniProt P50406); assay: Inhibition of 5HT6 receptor at 10 uM
5-hydroxytryptamine receptor 6 (Homo sapiens), sequence (P50406 whole entry): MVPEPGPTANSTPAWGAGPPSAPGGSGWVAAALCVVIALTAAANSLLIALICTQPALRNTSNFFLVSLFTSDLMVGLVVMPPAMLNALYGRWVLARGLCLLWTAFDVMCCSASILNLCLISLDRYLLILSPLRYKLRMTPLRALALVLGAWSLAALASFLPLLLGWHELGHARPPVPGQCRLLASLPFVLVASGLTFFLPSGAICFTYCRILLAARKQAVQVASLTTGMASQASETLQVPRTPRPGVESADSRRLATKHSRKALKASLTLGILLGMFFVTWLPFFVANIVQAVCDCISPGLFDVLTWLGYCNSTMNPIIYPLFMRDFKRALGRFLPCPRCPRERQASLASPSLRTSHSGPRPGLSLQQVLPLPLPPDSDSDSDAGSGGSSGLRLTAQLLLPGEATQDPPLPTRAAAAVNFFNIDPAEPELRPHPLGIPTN

[22] = target: T2, 5-hydroxytryptamine receptor 7; assay: Inhibition of 5HT7 receptor at 10 uM
[23] = in vivo; details: Sprague-Dawley, rat, po, 5 mg/kg
[24] = in vivo; details: Sprague-Dawley, rat, po, 5 mg/kg; remark: listed apart in the source
[25] = target: hERG (KCNH2) (Homo sapiens, UniProt Q12809); assay: Inhibition of human ERG expressed in CHO cells at 3 uM; details: CHO cells expressing human ERG
hERG (KCNH2), sequence (Q12809 whole entry): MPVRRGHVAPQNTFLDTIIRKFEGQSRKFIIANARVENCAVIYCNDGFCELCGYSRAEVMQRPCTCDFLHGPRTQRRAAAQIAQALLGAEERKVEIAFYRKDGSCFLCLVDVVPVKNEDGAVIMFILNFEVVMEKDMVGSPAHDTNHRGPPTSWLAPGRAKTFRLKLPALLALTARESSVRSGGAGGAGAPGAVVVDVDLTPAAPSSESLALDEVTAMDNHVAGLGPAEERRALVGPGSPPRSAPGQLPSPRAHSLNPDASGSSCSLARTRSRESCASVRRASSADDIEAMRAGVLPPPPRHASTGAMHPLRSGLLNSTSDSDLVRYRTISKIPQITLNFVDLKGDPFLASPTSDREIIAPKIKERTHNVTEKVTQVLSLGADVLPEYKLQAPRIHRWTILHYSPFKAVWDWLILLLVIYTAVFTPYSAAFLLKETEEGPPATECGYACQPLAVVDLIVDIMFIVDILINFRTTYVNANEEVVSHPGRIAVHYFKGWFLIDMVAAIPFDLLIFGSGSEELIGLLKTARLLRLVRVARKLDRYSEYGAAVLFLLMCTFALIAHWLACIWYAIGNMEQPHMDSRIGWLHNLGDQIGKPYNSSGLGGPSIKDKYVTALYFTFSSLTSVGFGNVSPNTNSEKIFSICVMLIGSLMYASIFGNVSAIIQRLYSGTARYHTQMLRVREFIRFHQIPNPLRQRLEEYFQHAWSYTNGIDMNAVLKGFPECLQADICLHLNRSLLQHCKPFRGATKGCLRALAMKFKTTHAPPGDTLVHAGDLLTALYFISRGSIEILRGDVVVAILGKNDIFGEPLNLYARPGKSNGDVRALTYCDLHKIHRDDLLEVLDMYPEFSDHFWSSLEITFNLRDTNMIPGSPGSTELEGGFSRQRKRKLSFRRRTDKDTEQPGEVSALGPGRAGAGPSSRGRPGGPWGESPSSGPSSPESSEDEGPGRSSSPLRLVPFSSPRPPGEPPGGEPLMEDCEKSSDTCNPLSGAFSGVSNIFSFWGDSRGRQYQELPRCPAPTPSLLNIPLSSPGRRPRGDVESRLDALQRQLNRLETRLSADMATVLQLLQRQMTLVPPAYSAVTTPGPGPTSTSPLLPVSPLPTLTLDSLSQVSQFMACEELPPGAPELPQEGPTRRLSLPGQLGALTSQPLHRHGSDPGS

[26] = Permeability across human Caco2 cells; details: Caco-2
[27] = tested on: Liver microsomes; assay: as §1; details: microsomes

Structure (SMILES) | Ratio Ki [1] | Intrinsic activity [2] | half-life ([3]; liver microsomes) | EC50 [4] | Ki [5] | Papp [26] | also measured
CC(C)n1c(=O)c(C(=O)N[C@H]2C[C@H]3CC[C@@H](C2)N3CC(O)CNC(N)=O)cc2ccccc21 (mixture of isomers) | 3300 | 82% | > 1.5 h | 5.01 nM | 15.8 nM | – | –
CC(C)n1c(=O)c(C(=O)N[C@H]2C[C@H]3CC[C@@H](C2)N3C[C@@H](O)CN(C)S(C)(=O)=O)cc2ccccc21 | – | 95% | > 1.5 h | – | – | – | Ki [6]: < 100 nM; EC50 [7]: 12.6 nM; Activity [8]: Dose-dependent effect; ED50 [8]: 0.025 mg/kg; Activity [9]: Active; Activity [10]: Active; half-life [11]: 12 h; half-life [12]: 1.9 h; inhibition [13]: < 50%; inhibition [14]: < 50%; inhibition [15]: < 50%; inhibition [16]: < 50%; inhibition [17]: < 50%; inhibition [18]: < 50%; inhibition [19]: < 50%; inhibition [20]: < 50%; inhibition [21]: < 50%; inhibition [22]: < 50%; Cmax [23]: 160 ng/mL; AUC(0-t) [24]: 460 ng·h/mL
CNC(=O)N(C)CC(O)CN1[C@@H]2CC[C@H]1C[C@@H](NC(=O)c1cc3ccccc3n(C(C)C)c1=O)C2 (mixture of isomers) | 870 | 95% | – | 31.6 nM | 100 nM | – | –
CC(=O)N(C)CC(O)CN1[C@@H]2CC[C@H]1C[C@@H](NC(=O)c1cc3ccccc3n(C(C)C)c1=O)C2 (mixture of isomers) | 1500 | 95% | > 1.5 h | 12.6 nM | 39.8 nM | 16 ×10⁻⁶ cm/s | inhibition at 3 µM [25]: 11%
CC(=O)NCC(O)CN1[C@@H]2CC[C@H]1C[C@@H](NC(=O)c1cc3ccccc3n(C(C)C)c1=O)C2 (mixture of isomers) | 2200 | 96% | > 1.5 h | 6.31 nM | 31.6 nM | 6 ×10⁻⁶ cm/s | –
CC(C)n1c(=O)c(C(=O)N[C@H]2C[C@H]3CC[C@@H](C2)N3CC(O)CNS(C)(=O)=O)cc2ccccc21 (mixture of isomers) | 1200 | 107% | – | 7.94 nM | 20 nM | – | inhibition at 3 µM [25]: 10%
CC(C)n1c(=O)c(C(=O)N[C@H]2C[C@H]3CC[C@@H](C2)N3C[C@H](O)CN(C)S(C)(=O)=O)cc2ccccc21 | – | 97% | > 1.5 h | – | – | – | –
CC(C)n1c(=O)c(C(=O)N[C@H]2C[C@H]3CC[C@@H](C2)N3CC(O)CNC(=O)N(C)C)cc2ccccc21 (mixture of isomers) | 860 | – | > 1.5 h | – | 100 nM | 3 ×10⁻⁶ cm/s | –
CC(C)n1c(=O)c(C(=O)N[C@H]2C[C@H]3CC[C@@H](C2)N3CC(O)CN(C)C(=O)N(C)C)cc2ccccc21 (mixture of isomers) | 260 | 87% | > 1.5 h | 20 nM | 50.1 nM | 33 ×10⁻⁶ cm/s | inhibition at 3 µM [25]: 64%
COc1cc(N)c(Cl)cc1C(=O)N[C@H]1CCN(CCCOc2ccc(F)cc2)C[C@H]1OC (relative stereo) [REL-CISAPRIDE] | – | 71 | – | – | – | – | t1/2 [27]: 0.783 h
CC(C)n1c(=O)c(C(=O)N[C@H]2C[C@H]3CC[C@@H](C2)N3CC(O)CN(C)S(C)(=O)=O)cc2ccccc21 (mixture of isomers) | – | 96% | > 1.5 h | – | – | – | –
CCCCCNC(=N)N/N=C/c1c[nH]c2ccc(OC)cc12 [TEGASEROD] | 580 | 92% | > 1.5 h | 2.51 nM | – | – | ED50 [8]: 0.011 mg/kg
CC(=O)N1CCN(CCN2[C@@H]3CC[C@H]2C[C@@H](NC(=O)c2nn(C(C)C)c4ccccc24)C3)CC1 | 980 | – | > 1.5 h | – | – | – | –
COC(=O)N(C)CC(O)CN1[C@@H]2CC[C@H]1C[C@@H](NC(=O)c1cc3ccccc3n(C(C)C)c1=O)C2 (mixture of isomers) | 710 | 84% | > 1.5 h | 10 nM | 39.8 nM | 35 ×10⁻⁶ cm/s | inhibition at 3 µM [25]: 40%
CC(C)n1c(=O)c(C(=O)N[C@H]2C[C@H]3CC[C@@H](C2)N3C[C@@H](O)CN2CCN(S(C)(=O)=O)CC2)cc2ccccc21 | 7400 | 114% | – | – | – | – | half-life ([3]; microsomes): > 1.5 h
CC(C)n1c(=O)c(C(=O)N[C@H]2C[C@H]3CC[C@@H](C2)N3CC(O)CN(C)C(N)=O)cc2ccccc21 (mixture of isomers) | 1800 | 95% | – | 20 nM | 50.1 nM | 1 ×10⁻⁶ cm/s | half-life ([3]; microsomes): > 1.5 h
CNC(=O)NCC(O)CN1[C@@H]2CC[C@H]1C[C@@H](NC(=O)c1cc3ccccc3n(C(C)C)c1=O)C2 (mixture of isomers) | 2400 | 82% | > 1.5 h | 12.6 nM | 25.1 nM | – | –
COC(=O)NCC(O)CN1[C@@H]2CC[C@H]1C[C@@H](NC(=O)c1cc3ccccc3n(C(C)C)c1=O)C2 (mixture of isomers) | 1600 | – | – | – | 50.1 nM | 35 ×10⁻⁶ cm/s | inhibition at 3 µM [25]: 74%; half-life ([3]; microsomes): > 1.5 h
